Reference: ChEMBL document CHEMBL1133214, “Novel nikkomycin analogues: inhibitors of the fungal cell wall biosynthesis enzyme chitin synthase” (Bioorg Med Chem Lett, 2000)
Values after ≈ are worked out from the molar mass of the structure shown.

Experiments:
Candida albicans = test: Percent inhibition rate of 100 ug/mL against chitin synthase isolated from Candida albicans.
[1] = Inhibition of chitin synthase isolated from Candida Albicans.

Rate (Candida albicans) [%]	IC50 [1] [µg/mL]	SMILES
78	–	N[C@@H](CSCc1ccccc1)C(=O)N[C@H](C(=O)O)[C@H]1O[C@@H](n2ccc(=O)[nH]c2=O)[C@H](O)C1O (single isomer, unassigned)
58	–	CC(C)(SCc1ccc(O)cn1)[C@H](N)C(=O)N[C@H](C(=O)O)[C@H]1O[C@@H](n2ccc(=O)[nH]c2=O)[C@H](O)C1O (single isomer, unassigned)
100	4.91 (≈ 9.36 µM)	CC(C)(SCc1cccc(O)c1)[C@H](N)C(=O)N[C@H](C(=O)O)[C@H]1O[C@@H](n2ccc(=O)[nH]c2=O)[C@H](O)C1O (single isomer, unassigned)
99	4.69 (≈ 9.68 µM)	N[C@@H](Cc1cccc2ccccc12)C(=O)N[C@H](C(=O)O)[C@H]1O[C@@H](n2ccc(=O)[nH]c2=O)[C@H](O)C1O (single isomer, unassigned)
94	1.42 (≈ 2.54 µM)	CC(C)(SCc1ccc2ccccc2c1)[C@H](N)C(=O)N[C@H](C(=O)O)[C@H]1O[C@@H](n2ccc(=O)[nH]c2=O)[C@H](O)C1O (single isomer, unassigned)
88	13.8 (≈ 26.3 µM)	CC(C)(SCc1ccccc1O)[C@H](N)C(=O)N[C@H](C(=O)O)[C@H]1O[C@@H](n2ccc(=O)[nH]c2=O)[C@H](O)C1O (single isomer, unassigned)
40	–	N[C@@H](CSc1ccc2ccccc2c1)C(=O)N[C@H](C(=O)O)[C@H]1O[C@@H](n2ccc(=O)[nH]c2=O)[C@H](O)C1O (single isomer, unassigned)
99	5.89 (≈ 11.2 µM)	CC(C)(SCc1ccc(O)cc1)[C@H](N)C(=O)N[C@H](C(=O)O)[C@H]1O[C@@H](n2ccc(=O)[nH]c2=O)[C@H](O)C1O (single isomer, unassigned)
96	6.43 (≈ 13.3 µM)	N[C@@H](Cc1ccc2ccccc2c1)C(=O)N[C@H](C(=O)O)[C@H]1O[C@@H](n2ccc(=O)[nH]c2=O)[C@H](O)C1O (single isomer, unassigned)
97	9.83 (≈ 19.3 µM)	CC(C)(SCc1ccccc1)[C@H](N)C(=O)N[C@H](C(=O)O)[C@H]1O[C@@H](n2ccc(=O)[nH]c2=O)[C@H](O)C1O (single isomer, unassigned)

More lines, now with the values behind:

SMILES	Rate (Candida albicans) [%]	IC50 [1] [µg/mL]
CC(=O)NCSC[C@H](N)C(=O)N[C@H](C(=O)O)[C@H]1O[C@@H](n2ccc(=O)[nH]c2=O)[C@H](O)C1O (single isomer, unassigned)	65	–
N[C@@H](Cc1ccc(O)cc1)C(=O)N[C@H](C(=O)O)[C@H]1O[C@@H](n2ccc(=O)[nH]c2=O)[C@H](O)C1O (single isomer, unassigned)	99	4.83 (≈ 10.7 µM)
CC(C)=CCC/C(C)=C/CSC[C@H](N)C(=O)N[C@H](C(=O)O)[C@H]1O[C@@H](n2ccc(=O)[nH]c2=O)[C@H](O)C1O (single isomer, unassigned)	22	–
N[C@@H](CSc1ccc(O)cn1)C(=O)N[C@H](C(=O)O)[C@H]1O[C@@H](n2ccc(=O)[nH]c2=O)[C@H](O)C1O (single isomer, unassigned)	73	36 (≈ 74.5 µM)
N[C@@H](Cc1ccc(O)cn1)C(=O)N[C@H](C(=O)O)[C@H]1O[C@@H](n2ccc(=O)[nH]c2=O)[C@H](O)C1O (single isomer, unassigned)	34	–
N[C@@H](CSc1ccccn1)C(=O)N[C@H](C(=O)O)[C@H]1O[C@@H](n2ccc(=O)[nH]c2=O)[C@H](O)C1O (single isomer, unassigned)	48	–
CCCCCCCCCCCCSC[C@H](N)C(=O)N[C@H](C(=O)O)[C@H]1O[C@@H](n2ccc(=O)[nH]c2=O)[C@H](O)C1O (single isomer, unassigned)	64	–
N[C@@H](CSc1ccc(O)cc1)C(=O)N[C@H](C(=O)O)[C@H]1O[C@@H](n2ccc(=O)[nH]c2=O)[C@H](O)C1O (single isomer, unassigned)	44	–
N[C@@H](CSCC1CCCCC1)C(=O)N[C@H](C(=O)O)[C@H]1O[C@@H](n2ccc(=O)[nH]c2=O)[C@H](O)C1O (single isomer, unassigned)	67	–
N[C@@H](Cc1cc2ccccc2c2ccccc12)C(=O)N[C@H](C(=O)O)[C@H]1O[C@@H](n2ccc(=O)[nH]c2=O)[C@H](O)C1O (single isomer, unassigned)	99	0.31 (≈ 0.58 µM)
N[C@@H](Cc1cccnc1)C(=O)N[C@H](C(=O)O)[C@H]1O[C@@H](n2ccc(=O)[nH]c2=O)[C@H](O)C1O (single isomer, unassigned)	82	19.8 (≈ 45.5 µM)
N[C@@H](CSc1ccc(C(=O)O)cn1)C(=O)N[C@H](C(=O)O)[C@H]1O[C@@H](n2ccc(=O)[nH]c2=O)[C@H](O)C1O (single isomer, unassigned)	64	52.5 (≈ 103 µM)
C[C@@H]([C@H](N)C(=O)N[C@H](C(=O)O)[C@H]1O[C@@H](n2ccc(=O)[nH]c2=O)[C@H](O)C1O)[C@H](O)c1ccc(O)cn1 (single isomer, unassigned) [NIKKOMYCIN]	–	0.393 (≈ 0.793 µM)
Nc1ccc(SC[C@H](N)C(=O)N[C@H](C(=O)O)[C@H]2O[C@@H](n3ccc(=O)[nH]c3=O)[C@H](O)C2O)nc1 (single isomer, unassigned)	42	–
